Reference: PMC8551653, “Bisphenol A derivatives act as novel coactivator-binding inhibitors for estrogen receptor β” (The Journal of Biological Chemistry, 2021)
“Also recorded” adds a separate entry of the source.

Experiments:
[1] = molecular target: T1, ERβ (Homo sapiens, UniProt Q92731); test: Luciferase reporter gene assay in HeLa cells, agonistic activity; format: cell-based; set-up: expressed in transfected cells; host or cells: HeLa; conditions: HeLa cells, WT ERβ; listed as BPA
Procedure: (§1) HeLa cells were maintained in Eagle's minimum essential medium (Nissui Pharmaceutical Co, Ltd) supplemented with DCC-treated fetal bovine serum (10%, v/v) at 37 °C under 5% CO2. […] After a 24-h incubation, luciferase activity was measured using the ONE-Glo Luciferase Assay System (Promega Co) on an EnSpire multimode plate reader (PerkinElmer, Inc).
Target sequence in this assay (Q92731 whole entry): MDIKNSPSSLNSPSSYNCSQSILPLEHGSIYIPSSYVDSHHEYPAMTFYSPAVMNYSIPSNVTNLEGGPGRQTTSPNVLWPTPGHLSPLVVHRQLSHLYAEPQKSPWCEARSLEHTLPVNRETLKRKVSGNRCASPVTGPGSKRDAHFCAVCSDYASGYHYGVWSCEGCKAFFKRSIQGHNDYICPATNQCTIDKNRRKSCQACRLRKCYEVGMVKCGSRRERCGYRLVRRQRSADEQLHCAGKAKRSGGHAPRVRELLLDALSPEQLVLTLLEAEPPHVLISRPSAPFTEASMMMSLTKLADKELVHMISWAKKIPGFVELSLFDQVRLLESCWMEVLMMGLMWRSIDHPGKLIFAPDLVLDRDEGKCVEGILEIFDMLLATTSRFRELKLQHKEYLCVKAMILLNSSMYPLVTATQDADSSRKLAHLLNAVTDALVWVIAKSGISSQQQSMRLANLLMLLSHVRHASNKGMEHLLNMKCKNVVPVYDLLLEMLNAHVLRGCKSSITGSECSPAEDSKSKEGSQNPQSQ

[2] = molecular target: T1, ERβ; test: Luciferase reporter gene assay in HeLa cells, antagonistic activity against 10 nM E2; format: cell-based; set-up: expressed in transfected cells; host or cells: HeLa; conditions: against 10 nM E2-induced ERβ activation; 100 nM, 1 μM, 10 μM
Procedure: as §1
Target sequence in this assay (Q92731 whole entry): as above

[3] = molecular target: T2, ERβ(W335A) (Homo sapiens, UniProt Q92731, W335A); test: Luciferase reporter gene assay in HeLa cells, ERβ(W335A); format: cell-based; set-up: expressed in transfected cells; host or cells: HeLa
Procedure: as §1, with “After incubation for 24 h, cells were harvested and seeded onto 96-well plates at 5 × 10^4 cells/well, and then treated with a series of the test compounds (10^−12 M to 10^−5 M, final concentration) diluted with 1% bovine serum albumin/PBS (v/v). After” for “After”
Target sequence in this assay (Q92731 whole entry W335A): as the sequence (Q92731 whole entry) above, with W335A counted along it

[4] = molecular target: T1, ERβ; test: Radioligand competitive binding assay with [3H]E2 for ERβ (GST-ERβ-LBD); set-up: made in house; host or cells: Escherichia coli BL21α; conditions: relative to E2
Procedure: Human ERβ cDNA was obtained from OriGene Technologies. The cDNA of ERβ-LBD was amplified using PCR and subcloned into a pGEX-6p-1 expression vector. The expression of GST-fused ERβ-LBD was induced by 1 mM IPTG in Escherichia coli BL21α at 16 °C for overnight. The resulting crude protein was affinity-purified using Glutathione-Sepharose 4B (Cytiva), followed by gel filtration using a Sephadex G-10 column (Cytiva).
Target sequence in this assay (Q92731 263-530): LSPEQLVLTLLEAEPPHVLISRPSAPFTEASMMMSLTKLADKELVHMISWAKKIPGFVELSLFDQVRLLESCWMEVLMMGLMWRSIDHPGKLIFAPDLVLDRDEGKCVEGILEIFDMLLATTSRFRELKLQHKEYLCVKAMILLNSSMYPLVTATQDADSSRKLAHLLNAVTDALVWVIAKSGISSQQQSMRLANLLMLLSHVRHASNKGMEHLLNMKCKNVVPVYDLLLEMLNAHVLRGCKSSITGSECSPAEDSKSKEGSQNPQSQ

[5] = molecular target: T1, ERβ; test: Competitive binding assay with [3H]4OHT for WT ERβ; set-up: made in house; host or cells: Escherichia coli BL21α; conditions: [3H]4OHT radioligand
Procedure: (§2) After successive incubation with 100 μl of 0.4% dextran-coated charcoal (DCC) (Sigma-Aldrich) in PBS (pH 7.4) on ice for 10 min, free radioligands bound to DCC were removed using a vacuum filtration system with a 96-well filtration plate (MultiScreenHTS HV, […], Merck KGaA) for the bound/free separation. The radioactivity of each eluent was measured using a liquid scintillation counter (LS6500; Beckman Coulter) and Clear-sol I (Nacalai Tesque Inc). […] Each compound was dissolved in dimethyl sulfoxide to prepare a 1.0 mM stock solution and further diluted to prepare serial dilutions (10^−12 M to 10^−5 M) in the binding buffer. […] Bound/free separation was performed as described above, and the radioactivity was determined using a MicroBeta microplate counter (PerkinElmer Inc). The IC50 value of each test compound was calculated from the dose–response curves generated via nonlinear regression analysis using Prism software (GraphPad Software Inc).
Target sequence in this assay (Q92731 263-530): as above

[6] = molecular target: T2, ERβ(W335A); test: Competitive binding assay for ERβ(W335A); set-up: made in house; host or cells: Escherichia coli BL21α (described for the wild-type LBD); conditions: Fig. 4B
Procedure: as §2
Target sequence in this assay (Q92731 263-530 W335A): as the sequence (Q92731 263-530) above, with W73A counted along it

[7] = molecular target: T3, GST-fused ligand-binding domain of human estrogen receptor β (amino acids 263–530) (human, UniProt Q92731 263-530); test: SPR; Biacore T100; GST-ERβ-LBD without E2, captured on anti-GST antibody on a CM5 chip; SRC1 peptide injected; HBS-EP+ buffer; conditions: both partners purified
T3 construct: cDNA from OriGene Technologies; Subcloned into pGEX-6p-1; Captured on the chip through an anti-GST antibody; Incubated beforehand with 10 μM E2 or 10 μM BPC (small molecules) in two of the three SPR conditions; also called GST-ERβ-LBD; ERβ-LBD; source: E. coli BL21α, purified (Glutathione-Sepharose 4B, gel filtration on Sephadex G-10)
T3 sequence (Q92731 263-530): as the sequence (Q92731 263-530) above

[8] = molecular target: T3, GST-fused ligand-binding domain of …; test: SPR; Biacore T100; GST-ERβ-LBD incubated with 10 μM BPC for 1 h, captured on anti-GST antibody on a CM5 chip at 25 °C; SRC1 peptide injected with BPC; HBS-EP+ buffer; conditions: both partners purified
[9] = molecular target: T3, GST-fused ligand-binding domain of …; test: SPR; Biacore T100; GST-ERβ-LBD incubated with 10 μM E2 for 1 h, captured on anti-GST antibody on a CM5 chip at 25 °C; SRC1 peptide injected with E2; HBS-EP+ buffer (0.01 M Hepes pH 7.4, 0.15 M NaCl, 3 mM EDTA, 0.05% Surfactant P20); conditions: both partners purified

ERβ antagonist activity (in words) [2]	transcriptional activity on ERβ(W335A) (in words) [3]	affinity for ERβ, times weaker than that of E2 [4] [times]	shape of competitive binding curve, WT ERβ [5]	Kd [7] [µM]	Kd [8] [µM]	Kd [9] [µM]	Molecule	ERβ agonist activity (in words) [1]	shape of competitive binding curve, ERβ(W335A) [6]
did not elicit antagonistic activity	lost	400	sigmoidal curve				CC(C)(c1ccc(O)cc1)c1ccc(O)cc1 [Compound 19, 4,4'-(propane-2,2-diyl)diphenol]	full agonist activity; also recorded: strongest ERβ agonistic activity; also recorded: strong transcriptional activity	typical sigmoidal competitive dose–response curve
				9.1	16.4	3.3	ERHKILHRLLQEG (source: synthetic peptide (ABI 433A, solid phase, Fmoc chemistry)) [SRC1 peptide (amino acids 685–697) derived from human nuclear receptor coactivator 1]		
